Activity calls are given as the source filed them. The rule behind the calls is not given here.
Experiments:
[1] = biological target: T1, Orexin/Hypocretin receptor type 1 (Homo sapiens) (UniProt O43613); test: Antagonist activity at OX1 receptor (unknown origin) expressed in RD-HGA16 cells assessed as inhibition orexin A-induced calcium mobilization by fluorescence assay; format: functional, cell-based
T1 sequence (whole entry): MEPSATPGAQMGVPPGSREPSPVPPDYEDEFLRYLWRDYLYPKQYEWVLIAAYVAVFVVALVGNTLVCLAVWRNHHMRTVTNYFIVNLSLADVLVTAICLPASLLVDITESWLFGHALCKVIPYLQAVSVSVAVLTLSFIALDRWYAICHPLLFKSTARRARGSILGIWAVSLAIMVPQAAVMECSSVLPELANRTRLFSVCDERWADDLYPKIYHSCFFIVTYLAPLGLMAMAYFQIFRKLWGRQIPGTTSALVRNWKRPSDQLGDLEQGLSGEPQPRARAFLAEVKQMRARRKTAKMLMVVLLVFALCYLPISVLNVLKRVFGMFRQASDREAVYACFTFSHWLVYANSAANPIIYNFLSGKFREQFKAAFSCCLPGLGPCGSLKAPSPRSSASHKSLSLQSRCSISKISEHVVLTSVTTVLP

[2] = biological target: T2, Orexin receptor type 2 (Homo sapiens) (UniProt O43614); test: Antagonist activity at OX2 receptor (unknown origin) expressed in RD-HGA16 cells assessed as inhibition orexin A-induced calcium mobilization at 10 uM by fluorescence assay; format: functional, cell-based
T2 sequence (whole entry): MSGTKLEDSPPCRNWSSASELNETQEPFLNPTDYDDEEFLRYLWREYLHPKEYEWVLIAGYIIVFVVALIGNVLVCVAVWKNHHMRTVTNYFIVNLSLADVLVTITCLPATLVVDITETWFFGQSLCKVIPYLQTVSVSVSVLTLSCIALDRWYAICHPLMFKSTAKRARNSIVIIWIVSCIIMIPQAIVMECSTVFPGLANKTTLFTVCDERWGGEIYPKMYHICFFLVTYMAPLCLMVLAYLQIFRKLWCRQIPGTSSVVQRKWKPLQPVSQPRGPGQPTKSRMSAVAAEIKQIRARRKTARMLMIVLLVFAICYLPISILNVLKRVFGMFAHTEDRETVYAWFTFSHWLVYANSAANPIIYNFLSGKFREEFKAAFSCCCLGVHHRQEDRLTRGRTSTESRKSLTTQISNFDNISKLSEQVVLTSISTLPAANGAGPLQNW

[3] = organism: Homo sapiens; test: Selectivity ratio of Ke for OX2 receptor (unknown origin) to Ke for OX1 receptor (unknown origin)
[4] = biological target: T1, Orexin/Hypocretin receptor type 1 (Homo sapiens); test: Agonist activity at OX1 receptor (unknown origin) expressed in RD-HGA16 cells assessed as calcium mobilization at 10 uM by fluorescence assay; format: functional, cell-based

| SMILES | Ke(app) [1] [nM] | inhibition [2] [%] | Ratio [3] | Activity [4] |
| --- | --- | --- | --- | --- |
| CCCCCC(=O)Nc1ccc(CNC(=O)CN2CCc3cc(OC)c(OC)cc3C2Cc2ccc(OC)c(OC)c2)cc1 (stereo not given) | > 10000 |  |  |  |
| COc1ccc(CC2c3cc(OC)c(OC)cc3CCN2CC(=O)NCCCN(C)C)cc1OC (stereo not given) | > 10000 | < 30 |  |  |
| COc1ccc(CC2c3cc(OCC4CCCCC4)c(OC)cc3CCN2CC(=O)NCc2ccccc2)cc1OC (stereo not given) | > 10000 | < 30 |  |  |
| COc1ccc(CC2c3cc(OCCCCN(C)C)c(OC)cc3CCN2CC(=O)NCc2ccccc2)cc1OC (stereo not given) | 5740 | < 30 |  |  |
| CCCCOc1cc2c(cc1OC)CCN(CC(=O)NCc1ccccc1)C2Cc1ccc(OC)c(OC)c1 (stereo not given) | 54.7 |  | 34.6 | inactive |
| COc1ccc(CC2c3cc(OCCN(C)C)c(OC)cc3CCN2CC(=O)NCc2ccccc2)cc1OC (stereo not given) | 4740 | < 30 |  |  |
| CCCOc1cc2c(cc1OC)CCN(CC(=O)NCc1ccccc1)C2Cc1ccc(OC)c(OC)c1 (stereo not given) | 17.3 |  |  | inactive |
| COc1ccc(CC2c3cc(OCc4ccccc4)c(OC)cc3CCN2CC(=O)NCc2ccccc2)cc1OC (stereo not given) | 402 | < 30 |  | inactive |
| COc1ccc(CC2c3cc(OC)c(OC)cc3CCN2CC(=O)NCc2ccc(F)cc2)cc1OC (stereo not given) | 279 |  | 12.4 | inactive |
| COc1ccc(CC2c3cc(OC)c(OC)cc3CCN2CC(=O)NC2CCCc3ccccc32)cc1OC (stereo not given) | 41.1 |  | 15.9 | inactive |
| COc1ccc(CC2c3cc(OC)c(OC)cc3CCN2CC(=O)NCC(N)=O)cc1OC (stereo not given) | > 10000 | < 30 |  |  |
| COc1ccc(CC2c3cc(OC)c(OC)cc3CCN2CC(=O)Nc2ccc(-c3ccccc3)cc2)cc1OC (stereo not given) | 2240 | < 30 |  |  |
| CCCOc1cc2c(cc1OC)CCN(CC(=O)NCc1ccccn1)C2Cc1ccc(OC)c(OC)c1 (stereo not given) | 20.6 |  |  | inactive |
| CCCC(=O)Oc1cc2c(cc1OC)CCN(CC(=O)NCc1ccccc1)C2Cc1ccc(OC)c(OC)c1 (stereo not given) | 78.5 |  |  | inactive |
| COc1ccc(CC2c3cc(OC)c(OC)cc3CCN2CC(=O)N2CCc3ccccc3C2)cc1OC (stereo not given) | 3030 |  | 3 |  |
| CNC(=O)CNC(=O)CN1CCc2cc(OC)c(OC)cc2C1Cc1ccc(OC)c(OC)c1 (stereo not given) | 7640 | < 30 |  |  |
| COc1ccc(CC2c3cc(OC)c(OC)cc3CCN2CC(=O)NCc2cccnc2)cc1OC (stereo not given) | 152 |  |  | inactive |
| COc1ccc(CC2c3cc(OCC(F)(F)F)c(OC)cc3CCN2CC(=O)NCc2ccccn2)cc1OC (stereo not given) | 22.5 |  |  | inactive |
| CCOc1cc2c(cc1OC)CCN(CC(=O)NCc1ccccc1)C2Cc1ccc(OC)c(OC)c1 (stereo not given) | 30 |  |  | inactive |

| SMILES | Ke(app) [1] [nM] | inhibition [2] [%] | Ratio [3] | Activity [4] |
| --- | --- | --- | --- | --- |
| COc1ccc(CC2c3cc(OC)c(OC)cc3CCN2CC(=O)N[C@@H](C)c2ccccc2)cc1OC (single isomer, unassigned; diastereomer 1) | > 10000 | < 30 |  |  |
| COc1ccc(CC2c3cc(OCCC(C)C)c(OC)cc3CCN2CC(=O)NCc2ccccc2)cc1OC (stereo not given) | 326 |  | 12 | inactive |
| COc1ccc(CC2c3cc(OCC(F)(F)F)c(OC)cc3CCN2CC(=O)NCc2ccccc2)cc1OC (stereo not given) | 9.4 |  |  | inactive |
| COc1ccc(CC2c3cc(OC)c(OC)cc3CCN2CC(=O)N2CCCC(c3ccccc3)C2)cc1OC (stereo not given) | 3530 |  | 2.6 |  |
| COc1cc2c(cc1O)C(Cc1ccc(OC)c(OC)c1)N(CC(=O)NCc1ccccc1)CC2 (stereo not given) | 1530 |  | 3.8 |  |
| COc1ccc(CC2c3cc(OC)c(OC)cc3CCN2CC(=O)Nc2cc(C)nc3ccccc23)cc1OC (stereo not given) | 4510 | < 30 |  |  |
| COc1ccc(CC2c3cc(OC)c(OC)cc3CCN2CC(=O)NCc2ccc(Cl)cc2)cc1OC (stereo not given) | 162 |  | 14 | inactive |
| CCCCCCOc1cc2c(cc1OC)CCN(CC(=O)NCc1ccccc1)C2Cc1ccc(OC)c(OC)c1 (stereo not given) | 315 |  |  | inactive |
| COc1ccc(CC2c3cc(OC)c(OC)cc3CCN2CC(=O)NCCCc2ccccc2)cc1OC (stereo not given) | 2370 | < 30 |  |  |
| COc1ccc(CC2c3cc(OC)c(OC)cc3CCN2CC(=O)NCc2ccc(NC(C)=O)cc2)cc1OC (stereo not given) | > 10000 | < 30 |  |  |
| COc1ccc(CC2c3cc(OC)c(OC)cc3CCN2CC(=O)NC2CC(C)Nc3ccccc32)cc1OC (stereo not given) | 7170 | < 30 |  |  |
| COc1ccc(CC2c3cc(OS(C)(=O)=O)c(OC)cc3CCN2CC(=O)NCc2ccccc2)cc1OC (stereo not given) | 7.3 |  | 297 | inactive |
| COc1ccc(CC2c3cc(OC)c(OC)cc3CCN2CC(=O)N2CCC(c3ccccc3)CC2)cc1OC (stereo not given) | > 10000 | < 30 |  |  |
| COc1ccc(CC2c3cc(OS(=O)(=O)c4ccccc4)c(OC)cc3CCN2CC(=O)NCc2ccccc2)cc1OC (stereo not given) | 30.5 |  | 95.1 | inactive |
| COc1ccc(CC2c3cc(OCCCCOc4ccccc4)c(OC)cc3CCN2CC(=O)NCc2ccccc2)cc1OC (stereo not given) | 43.5 |  |  | inactive |
| COc1ccc(CC2c3cc(OS(=O)(=O)c4ccc(C)cc4)c(OC)cc3CCN2CC(=O)NCc2ccccc2)cc1OC (stereo not given) | 118 | < 30 |  | inactive |
| COc1ccc(CC2c3cc(OC)c(OC)cc3CCN2CC(=O)Nc2ccccc2-c2ccccc2)cc1OC (stereo not given) | 944 |  | 1.9 | inactive |
| COc1ccc(CC2c3cc(OC)c(OC)cc3CCN2CC(=O)N(C)Cc2ccccc2)cc1OC (stereo not given) | 2090 |  |  |  |
| COc1ccc(CC2c3cc(OC)c(OC)cc3CCN2CC(=O)N2CCN(c3ccccc3)CC2)cc1OC (stereo not given) | > 10000 | < 30 |  |  |

| SMILES | Ke(app) [1] [nM] | inhibition [2] [%] | Ratio [3] | Activity [4] |
| --- | --- | --- | --- | --- |
| COc1ccc(CC2c3cc(OC)c(OC)cc3CCN2CC(=O)Nc2cccc3ccccc23)cc1OC (stereo not given) | 732 | < 30 |  | inactive |
| CCCCCCNC(=O)Nc1ccc(CNC(=O)CN2CCc3cc(OC)c(OC)cc3C2Cc2ccc(OC)c(OC)c2)cc1 (stereo not given) | 3680 |  | 0.7 |  |
| CCOc1cc2c(cc1OC)CCN(CC(=O)NCc1cccnc1)C2Cc1ccc(OC)c(OC)c1 (stereo not given) | 15.7 |  |  | inactive |
| COc1ccc(CC2c3cc(OC)c(OC)cc3CCN2CC(=O)Nc2ccnc3c(F)cccc23)cc1OC (stereo not given) | 4220 | < 30 |  |  |
| COc1ccc(CC2c3cc(OC)c(OC)cc3CCN2CC(=O)NCc2ccccc2)cc1OC (stereo not given) | 199 |  |  | inactive |
| COC(=O)CNC(=O)CN1CCc2cc(OC)c(OC)cc2C1Cc1ccc(OC)c(OC)c1 (stereo not given) | 6630 | < 30 |  |  |
| COc1ccc(CC2c3cc(OCCN4CCCCC4)c(OC)cc3CCN2CC(=O)NCc2ccccc2)cc1OC (stereo not given) | 8040 | < 30 |  |  |
| COc1ccc(CC2c3cc(OC)c(OC)cc3CCN2CC(=O)NCc2ccc(N(C)C)cc2)cc1OC (stereo not given) | 3230 |  |  |  |
| COc1ccc(CC2c3cc(OC)c(OC)cc3CCN2CC(=O)OCc2ccccc2)cc1OC (stereo not given) | > 10000 | < 30 |  |  |
| COc1ccc(CC2c3cc(OC)c(OC)cc3CCN2CC(=O)NCc2ccncc2)cc1OC (stereo not given) | 1010 | < 30 |  |  |
| COc1ccc(CC2c3cc(OS(=O)(=O)C(F)(F)F)c(OC)cc3CCN2CC(=O)NCc2ccccc2)cc1OC (stereo not given) | 10 |  |  | inactive |
| CCCOc1cc2c(cc1OC)CCN(CC(=O)NCc1cccnc1)C2Cc1ccc(OC)c(OC)c1 (stereo not given) | 41.9 |  |  | inactive |
| CCCCCCCNC(=O)CN1CCc2cc(OC)c(OC)cc2C1Cc1ccc(OC)c(OC)c1 (stereo not given) | 589 |  | 3.9 | inactive |
| COc1ccc(CC2c3cc(OC)c(OC)cc3CCN2CC(=O)NCc2ccccn2)cc1OC (stereo not given) | 261 |  |  | inactive |
| CCOc1cc2c(cc1OC)CCN(CC(=O)NCc1ccccn1)C2Cc1ccc(OC)c(OC)c1 (stereo not given) | 87.4 |  |  | inactive |
| COc1ccc(CC2c3cc(OC)c(OC)cc3CCN2CC(=O)Nc2cccc(-c3ccccc3)c2)cc1OC (stereo not given) | 8980 | < 30 |  |  |
| COc1ccc(CC2c3cc(OCc4cccnc4)c(OC)cc3CCN2CC(=O)NCc2ccccc2)cc1OC (stereo not given) | 277 | < 30 |  | inactive |
| COc1ccc(CC2c3cc(OC)c(OC)cc3CCN2CC(=O)NCCc2ccccc2)cc1OC (stereo not given) | 3250 | < 30 |  |  |
| COc1ccc(CC2c3cc(OCc4ccccn4)c(OC)cc3CCN2CC(=O)NCc2ccccc2)cc1OC (stereo not given) | 101 | < 30 |  | inactive |
